Data: patent US20170056621A1, “LOCAL ADMINISTRATION OF DRUGS FOR THE TREATMENT OF ASTHMA” (Mercator MedSystems, Inc., priority 2015, published 2017)

How the values were obtained:
[1] = oral administration, cited from earlier work
porcine bronchi = experiment: Toxicity and histopathological evaluation after injections in all lobes of the lungs of porcine subjects; assay type: in vivo
Procedure: Four porcine subjects were treated with two different drugs to test pharmacokinetics and toxicity in porcine bronchi. Dexamethasone was administered to 2 animals at low (1 mg/mL), medium (2 mg/mL), and high (4 mg/mL) doses. The other drug, α-1-antitrypsin (Alpha-1-antitrypsin or A1AT), was administered to the remaining animals at low (2 mg/mL), medium (10 mg/mL), and high (50 mg/mL) doses. The drugs were administered via injections in all lobes of the lungs at the varying dosages.
All animals survived until a scheduled termination and were sacrificed on day 30. All four animals had limited necropsies completed.
This group was comprised of 2 animals. Both animals received low dose treatment in the right upper and middle lung lobes, and mid dose treatment in the right lower lung lobe. One subject received high dose treatment in the left upper lung lobe. Another subject received high dose treatment in the left upper and lower lung lobes.
This group was comprised of 2 animals. Both animals received low dose treatment in the right upper and middle lung lobes, and mid dose treatment in the right lower lung lobe. One subject received high dose treatment in the left lower lung lobe, and the other received high dose treatment in the left upper lung lobe.

bronchial walls = experiment: Bronchial wall injections in a porcine subject: bronchoconstriction challenge and relief; assay type: in vivo; details: for Effect of injection into methacholine-narrowed segments (bronchodilation): 0.1 to 0.5 mL injected into narrowed bronchial segments
Procedure: In another animal study, one porcine subject was utilized. The animal received multiple injections in the bronchial wall of sub-selected bronchi. First injections of methacholine in concentrations of 0.3 or 3.0 mg/mL and volumes of 0.1 to 0.5 mL were made into bronchial walls throughout the airway tree.

[2] = 0.3 or 3.0 mg/mL, 0.1 to 0.5 mL into bronchial walls

Compound: CN(Cc1cnc2nc(N)nc(N)c2n1)c1ccc(C(=O)N[C@@H](CCC(=O)O)C(=O)O)cc1 [MTX, Methotrexate]
- Onset of action ([1]; patients): 4-6 weeks
- Patients having some response [1]: 70%

Compound: C[C@@H]1C[C@H]2[C@@H]3CCC4=CC(=O)C=C[C@]4(C)[C@@]3(F)[C@@H](O)C[C@]2(C)[C@@]1(O)C(=O)CO [Dexamethasone]
- Findings in bronchial or bronchiolar walls (porcine bronchi; pig, in vivo): no abnormal findings
- Gross or histopathological changes in the lung related to toxic effects (porcine bronchi; pig, in vivo): did not induce any gross or histopathological changes
- Inflammatory cell infiltrates in lung sections (considered a background change) (porcine bronchi; pig, in vivo): minimal multifocal inflammatory cell infiltrates
- Histopathological examination of the lung tissues (porcine bronchi; porcine, injections in lung lobes at low, medium and high doses, sacrificed on day 30): normal lung architecture

Compound: CC(C)(C)NC[C@H](O)c1ccc(O)c(CO)c1 [levalbuterol]
- Effect of injection into methacholine-narrowed segments (bronchodilation) (bronchial walls): immediate bronchodilation

Compound: C[N+]1(C)[C@@H]2C[C@@H](OC(=O)C(O)(c3cccs3)c3cccs3)C[C@H]1[C@@H]1O[C@@H]12 [tiotropium bromide]
- Effect of injection into methacholine-narrowed segments (bronchodilation) (bronchial walls): immediate bronchodilation

Compound: α-1-antitrypsin [A1AT]
- Findings in bronchial or bronchiolar walls (porcine bronchi; pig, in vivo): no abnormal findings
- Gross or histopathological changes in the lung related to toxic effects (porcine bronchi; pig, in vivo): did not induce any gross or histopathological changes
- Histopathological examination of the lung tissues (porcine bronchi; pig, in vivo): normal lung architecture
- Inflammatory cell infiltrates in lung sections (considered a background change) (porcine bronchi; pig, in vivo): minimal multifocal inflammatory cell infiltrates

Compound: CC(=O)OC(C)C[N+](C)(C)C (centres unmarked) [methacholine]
- Duration of bronchoconstriction (bronchial walls; [2]): more than 30 minutes
- Effect of injection on the airway (bronchoconstriction) (bronchial walls; [2]): immediate bronchoconstriction
